Measurements: US20070142341A1, “Use of steroid derivatives for the treatment of angiotensin ll related disease e.g. cardiovascular and proliferative disorders” (priority 2003, published 2007)

Assays:
[1] = tested on: rat aortic smooth muscle cells (RASMC); assay: 3H-methylthymidine incorporation into rat aortic smooth muscle cells stimulated with Ang II; assay type: cell-based; settings: for Tritiated thymidine uptake / Effect on tritium incorporation induced by Ang II: 48 hours; for Tritiated thymidine uptake: serum-free medium, control 57.6, Ang II alone 87.1; for Effect on tritium incorporation induced by Ang II: Ang II 10^−7 M
Text: (§1) Aortic smooth muscle cells (ASMCs) were isolated from rat thoracic and abdominal artery (RASMC) and bovine aorta (BASMC) by the media explant method and cultured over several passages.
(§2) Segments of both abdominal and thoracic aortas were obtained from rats by careful dissection from killed rats. Segments of aorta were obtained from calves under anaesthesia. The segments of aorta were placed in a depression slide containing tissue culture medium, after which the adventitia and the outer portion of each segment was carefully removed under a dissecting microscope. The remaining inner portion of the tissue and the intima were removed to a separate dissecting dish and washed several times with fresh culture medium. At this point each segment was cut into approximately 1 mm squares and placed on 25 cm^2 tissue culture flask. The flasks were loosely capped and placed in a humidified CO2 incubator After two hours, 4 ml of RPMI-1640 culture medium supplemented with 100 units/ml of penicillin, […] streptomycin, […] L-glutamine and 20% […] was carefully added to the flasks without dislodging the tissue. Samples were fed with fresh medium after one week. The cells from the explants were relatively confluent within a period of approximately 2 weeks. They were then rinsed with PBS, and subsequently trypsinized with a solution of 0.125% trypsin and 0.02% EDTA in PBS for 1-2 min al 37° C. The resulting suspension of cells was pipetted into 75 cm^2 tissue culture flasks containing 10 ml culture medium and incubated as above.
(§3) Experiments were performed with cells from passages 3 to 5.
^3H-methylthymidine incorporation into rat aortic smooth muscle cells (RASMC). Quiescent RASMC (0.3×10^5/ml/well) were incubated with serum-free medium (SFM) containing Ang II (10^−7 M) with or without different concentrations of trilostane for 48 hours. The results are shown in Table 1. ^3H-methylthymidine incorporation into RASMC was increased in the Ang II treated group.
Using the same tritiated thymidine uptake methodology as for Example 1, the actions of Losartan on angiotensin II-stimulated cell proliferation were tested in the presence and absence of trilostane.

[2] = tested on: rat aortic smooth muscle cells (RASMC); assay: Cell count for rat aortic smooth muscle cells stimulated with Ang II; assay type: cell-based; settings: 48 hours; for Cell Count: 20% FBS RPMI-1640, control 12.00 × 10^4, Ang II alone 21.30 × 10^4; for Effect on Ang II stimulated increase in cell number: Ang II 10^−7 M
Text: as §1, §2, §3
Cell count for rat aortic smooth muscle cells (RASMC). RASMC (0.5×10^5/ml/well) were incubated with 20% FBS RPMI-1640 medium containing Ang II (10^−7 M) with or without different concentrations of trilostane for 48 hours.

[3] = tested on: circulating adrenal steroids; assay: Circulating plasma adrenal steroids in whole, healthy rats (radioimmunoassay, FIG. 1); assay type: in vivo, rat
Experimental: Trilostane has been used in treatments that are aimed at suppressing adrenal steroid secretion. Examples of adrenal steroids include cortisol, aldosterone and corticosterone. In practice, in patients with normally functioning adrenals, circulating adrenal steroids are reduced only at high trilostane dosage levels upwards of 8 to 10 mg/kg/day equivalent, and this is the regime most frequently used (Beardwell et al. 1985, Clin Endocrinol (Oxf), 23, 413-21, Engelhardt and Weber 1994, J Steroid Biochem Mol Biol, 40, 261-7). […] This can be shown by testing the levels of circulating adrenal steroids pre- and post-treatment and assessing whether or not the concentrations of adrenal steroids have been reduced. The levels of circulating adrenal steroids in the plasma can be tested by collecting circulating blood from a vein. Plasma is obtained by centrifugation and plasma steroid (for example, cortisol and aldesterone for humans, corticosterone and aldosterone in rats) is assayed using a conventional radioimmunoassay. Suitable corticosterone radioammunoassay kits are available from Amersham Biosciences UK Limited. Suitable aldosterone radioimmunoassay kits are available from Diagnostic Products Corporation.

[4] = tested on: circulating adrenal steroids; assay: Circulating corticosterone and aldosterone in male Wistar rats after 5 days of trilostane (FIG. 3a, b); assay type: in vivo, rat; settings: trilostane 4 mg/kg per day for 5 days, versus vehicle control
Experimental: Male Wistar rats (˜500 g) were treated with 0.1 ml ethanol in cotton seed oil with trilostane 4 mg/kg per day for 5 days. Control animals received the vehicle alone. Animals were then treated with 0.1 ml (500 u) heparin IP, before killing by stunning and cervical dislocation. Blood was collected from neck vessels, centrifuged to obtain plasma which was stored at −20° C. until required for steroid analysis. Corticosterone and aldosterone concentrations were assayed using commercially available kits (Diagnostic Systems Laboratories Inc., Webster, Tex., USA). Circulating concentrations of corticosterone (FIG. 3 (a)) and aldosterone (FIG. 3(b)) are shown for control animals and animals receiving trilostane treatment.

[5] = tested on: vascular smooth muscle cells; assay: Fura-2 [Ca2+]i signal response to angiotensin II in smooth muscle cells cultured from trilostane treated rats; assay type: cell-based, rat; parameters: key: + = calcium response; − = no response; settings: cells (TTSMC) from rats given trilostane 4 mg/kg per day for 5 days
Experimental: Male Wistar rats (˜500 g) were treated with 0.1 ml ethanol in cotton seed oil with trilostane 4 mg/kg per day for 5 days. Control animals received the vehicle alone. Animals were then treated with 0.1 ml (500 u) heparin IP, before killing by stunning and cervical dislocation. Blood was collected from neck vessels, centrifuged to obtain plasma which was stored at −20° C. until required for steroid analysis. Corticosterone and aldosterone concentrations were assayed using commercially available kits (Diagnostic Systems Laboratories Inc., Webster, Tex., USA). Circulating concentrations of corticosterone (FIG. 3 (a)) and aldosterone (FIG. 3(b)) are shown for control animals and animals receiving trilostane treatment. […] Primary cultures were established of RASMC obtained from trilostane treated and control animals, using the established methods. For [Ca^2+]i measurement, the cells were loaded with 1 μM fura-2 for 30 min in medium-modified Krebs-Ringer bicarbonate solution (3.6 mM K^+, 1.2 mM Ca^2+, 0.5 mM Mg^2+, 5 mM Hepes and 20 mM HCO^−) at 37° C. For simultaneous measurements of measuring the fluorescence of fura-2, the cells plated on coverslips were mounted on the stage of an inverted microscope (Zeiss) in a modified Krebs-Ringer bicarbonate solution. The excitation wavelengths were 340 and 380 nm, and emission was detected at 510 nm. [Ca^2+]i was calculated from the ratio of fluorescence intensities at excitation wavelengths of 340 and 380 nm. Fields of cells, ˜10 cells per field, were tested from control and trilostane treated animals. The results are shown in Table 3 and FIGS. (c) and (d) wherein the arrow indicates the time of application of angiotensin II. Characteristic calcium signals obtained by stimulation of vascular smooth muscle cells from control animals (FIG. 3(c)) and trilostane treated animals (FIG. 3(d)) by 10 nmol/L angiotensin II.

AT1 receptor mRNA = AT1 receptor mRNA expression by RT-PCR and real-time quantitative RT-PCR in RASMC (FIG. 4); assay type: cell-based, rat; settings: 48 hours, trilostane added to angiotensin II, FIG. 4, P<0.01
Experimental: […] Real-time RT-PCR was performed using Brilliant SYBR Green QRT-PCR Master Mix Kit, 1-step based on real-time detection of accumulated fluorescence (M×300P, Stratagene, Amsterdam). Results are means, SEM too small to show. **=P<0.01.

[6] = tested on: circulating adrenal steroids; settings: patients with normally functioning adrenals; cited from earlier work
[7] = tested on: severe congestive heart failure (CHF); settings: patients with severe congestive heart failure, given in addition to ACE inhibitors; cited from earlier work
myocardial injury = settings: rat model, angiotensin-induced injury, treatment with eplerenone; cited from earlier work
[8] = tested on: LV dysfunction and remodeling; settings: dogs with chronic heart failure, 3 months of treatment, cited from earlier work
[9] = Ang II 10^−7 M + trilostane 10^−5 M
[10] = Ang II 10^−7 M + trilostane 10^−6 M
[11] = Ang II 10^−7 M + trilostane 10^−7 M
[12] = Ang II 10^−7 M + trilostane 10^−8 M
[13] = Ang II 10^−7 M + trilostane 10^−9 M
[14] = trilostane at 10^−6 and 10^−5 M
[15] = trilostane at 10^−9, 10^−8 and 10^−7 M

**Q.** For `CCCCc1nc(Cl)c(CO)n1Cc1ccc(-c2ccccc2-c2nn[nH]n2)cc1` [Losartan], which “Action on angiotensin II-stimulated cell proliferation (tritiated thymidine uptake)” value ([1]; Losartan with angiotensin II, absence of trilostane, FIG. 2) is on record?
**A.** significantly eliminated the stimulatory action of angiotensin II

**Q.** And the “Cell proliferation (tritiated thymidine uptake) compared with controls” value ([1]; losartan alone group, FIG. 2)?
**A.** not different from controls

**Q.** With `C[C@]12CC[C@H]3[C@@H](CC[C@@]45O[C@@H]4C(O)=C(C#N)C[C@]35C)[C@@H]1CC[C@@H]2O` [trilostane, (4α,5α-17β)-4,5-epoxy-3,17-dihydroxyandrost-2-ene-2carbonitrile] as the compound, how does the Tritiated thymidine uptake [1, 9] read?
**A.** 42.7 dpm

**Q.** What about the Tritiated thymidine uptake [1, 10] of the same compound?
**A.** 74.9 dpm

**Q.** What about the Tritiated thymidine uptake [1, 11] of the same compound?
**A.** 89.1 dpm

**Q.** What about the Tritiated thymidine uptake [1, 12] of the same compound?
**A.** 101.88 dpm

**Q.** And the Tritiated thymidine uptake [1, 13]?
**A.** 96.7 dpm

**Q.** What about the “Cell proliferation (tritiated thymidine uptake)” value ([1]; trilostane additionally present with Losartan, FIG. 2, P<0.05 / P<0.01) of the same compound?
**A.** decreased cell proliferation still further to less than control values

**Q.** And the “Effect on tritium incorporation induced by Ang II” value [1, 14]?
**A.** inhibited

**Q.** What about the “Effect on tritium incorporation induced by Ang II” value [1, 15] of the same compound?
**A.** not at 10^−9, 10^−8 and 10^−7 M

**Q.** What about the “Cell Count” value [2, 9] of the same compound?
**A.** 14.25 × 10^4

**Q.** And the “Cell Count” value [2, 10]?
**A.** 14.00 × 10^4

**Q.** What about the “Cell Count” value [2, 11] of the same compound?
**A.** 20.00 × 10^4

**Q.** What about the “Cell Count” value [2, 12] of the same compound?
**A.** 21.95 × 10^4

**Q.** What about the “Cell Count” value [2, 13] of the same compound?
**A.** 21.00 × 10^4

**Q.** And the “Effect on Ang II stimulated increase in cell number” value [2, 14]?
**A.** inhibited

**Q.** And the “Effect on Ang II stimulated increase in cell number” value [2, 15]?
**A.** not at 10^−9, 10^−8 and 10^−7 M

**Q.** What about the Circulating corticosterone levels ([3]; rats, trilostane 4 mg/kg/day or 8 mg/kg/day) of the same compound?
**A.** Neither dose (4 mg/kg/day or 8 mg/kg/day) affects circulating corticosterone levels

**Q.** And the “Concentrations of aldosterone in circulating plasma” value ([3]; rats, trilostane 4 mg/kg/day, FIG. 1b)?
**A.** does not reduce concentrations of aldosterone in circulating plasma

**Q.** And the “Concentrations of aldosterone in circulating plasma” value ([3]; whole, healthy rats, trilostane 8 mg/kg/day, FIG. 1a)?
**A.** reduces concentrations of aldosterone in circulating plasma

**Q.** And the “Circulating concentrations of corticosterone” value ([4]; FIG. 3(a))?
**A.** no significant differences

**Q.** What about the “Circulating concentrations of aldosterone” value ([4]; FIG. 3(b)) of the same compound?
**A.** no significant differences

**Q.** And the “Calcium signal response to angiotensin II” value (from here on “Calcium signal response”) ([5]; Ang II 10^−6 M)?
**A.** +

**Q.** And the “Calcium signal response” value ([5]; Ang II 10^−7 M)?
**A.** −

**Q.** What about the “Calcium signal response” value ([5]; Ang II 10^−8 M, control cells (NSMC) +) of the same compound?
**A.** −

**Q.** And the “Calcium signal response” value ([5]; Ang II 10^−9 M, control cells (NSMC) −)?
**A.** −

**Q.** What about the “Calcium signal response” value ([5]; Ang II 10^−10 M, control cells (NSMC) −) of the same compound?
**A.** −

**Q.** And the “Calcium signal response” value ([5]; Ang II 10^−11 M, control cells (NSMC) −)?
**A.** −

**Q.** What about the “mRNA transcription of the gene coding for the angiotensin II type 1 receptor (AT1)” value (AT1 receptor mRNA) of the same compound?
**A.** reduced even further

**Q.** What about the “Dosage level at which circulating adrenal steroids are reduced” value [6] of the same compound?
**A.** 8 to 10 mg/kg/day

**Q.** For `CC(=O)S[C@@H]1CC2=CC(=O)CC[C@]2(C)[C@H]2CC[C@@]3(C)[C@@H](CC[C@@]34CCC(=O)O4)[C@H]12` [spironolactone], which Mortality [7] is on record?
**A.** significantly reduced mortality

**Q.** With `COC(=O)[C@@H]1CC2=CC(=O)CC[C@]2(C)[C@@]23O[C@@H]2C[C@@]2(C)[C@@H](CC[C@@]24CCC(=O)O4)[C@H]13` [eplerenone] as the compound, how does the “COX-2 expression in the media of coronary arteries” value (myocardial injury) read?
**A.** markedly attenuated

**Q.** What about the Myocardial injury (myocardial injury) of the same compound?
**A.** markedly attenuated

**Q.** What about the “Osteopontin expression in the media of coronary arteries” value (myocardial injury) of the same compound?
**A.** markedly attenuated

**Q.** What about the “Reduction in cardiomyocyte cross-sectional area” value ([8]; compared with control) of the same compound?
**A.** 28%

**Q.** And the “Reduction of volume fraction of reactive interstitial fibrosis” value ([8]; compared with control)?
**A.** 37%

**Q.** And the “Reduction of volume fraction of replacement fibrosis” value ([8]; compared with control)?
**A.** 34%

**Q.** And the “LV end-diastolic wall stress” value ([8]; increased significantly in control dogs)?
**A.** decreased significantly

**Q.** And the “End-diastolic volume, end-systolic volume, and EF” value ([8]; volumes increased significantly in control dogs)?
**A.** remained unchanged
